# Laboratory results: patent US20100063065A1 (Inpharmatica Limited, priority 2005, published 2010)
# Molecular target: T1, PPARδ (Homo sapiens, UniProt Q03181)
# T1 construct: fused to amino acids 147-441 of PPARδ downstream of CMV promoter; expressed in transfected cells; host or cells: HEK293 cells, transiently transfected with pFACMV-PPARδ using Fugene
# T1 sequence (Q03181 147-441): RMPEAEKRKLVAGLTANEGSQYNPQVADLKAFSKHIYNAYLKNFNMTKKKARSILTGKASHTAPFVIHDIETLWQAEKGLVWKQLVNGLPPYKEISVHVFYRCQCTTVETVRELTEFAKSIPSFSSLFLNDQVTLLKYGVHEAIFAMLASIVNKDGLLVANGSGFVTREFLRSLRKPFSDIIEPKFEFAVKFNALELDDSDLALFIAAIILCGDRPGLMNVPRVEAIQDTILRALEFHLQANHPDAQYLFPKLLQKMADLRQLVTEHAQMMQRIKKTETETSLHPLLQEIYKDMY
# Test: Transactivation assay (PPARδ GAL4 assay) in transiently transfected HEK293 cells
# Format: cell-based
# Conditions: luciferase reporter
# Outline: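 HEK293 cells transiently co-transfected with GAL4 DBD (aa 1-147)–PPARδ (aa 147-441) fusion and 5×GAL4-luciferase reporter, then exposed 24 h to compound (final 0-30 μM) in OptiMEM at 37° C. Luminescence read; activity as percent of GW501516 control, EC50 from sigmoidal dose-response fit.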
compound,measurement,setting,value
"CCc1cc(C(=O)c2ccc(OC(F)(F)F)cc2)c(NC(=O)c2ccc(SCC(=O)O)cc2)s1 [Example 103, {4-[5-Ethyl-3-(4-trifluoromethoxy-benzoyl)-thiophen-2-ylcarbamoyl]-phenylsulfanyl}-acetic acid]",EC50,Table 1,100 to 1000 nM
"CCc1cc(C(=O)c2ccc(OC(F)(F)F)cc2)c(NC(=O)CCCC(=O)O)s1 [Example 104, 4-[5-Ethyl-3-(4-trifluoromethoxy-benzoyl)-thiophen-2-ylcarbamoyl]-butyric acid]",EC50,Table 2,100 to 1000 nM
"CCc1cc(C(=O)c2ccc(OC(F)(F)F)cc2)c(NC(=O)CCCSCC(=O)O)s1 [Example 105, {3-[5-Ethyl-3-(4-trifluoromethoxy-benzoyl)-thiophen-2-ylcarbamoyl]-propylsulfanyl}-acetic acid]",EC50,Table 2,100 to 1000 nM
"CCc1cc(C(=O)c2ccc(OC(F)(F)F)cc2)c(NC(=O)C(C)SCC(=O)O)s1 (stereo not drawn) [Example 106, {1-[5-Ethyl-3-(4-trifluoromethoxy-benzoyl)-thiophen-2-ylcarbamoyl]-ethylsulfanyl}-acetic acid]",EC50,Table 2,< 100 nM
"CCc1cc(C(=O)c2ccc(OC(F)(F)F)cc2)c(NC(=O)C(C)(C)SCC(=O)O)s1 [Example 107, {1-[5-Ethyl-3-(4-trifluoromethoxy-benzoyl)-thiophen-2-ylcarbamoyl]-1-methyl-ethylsulfanyl}-acetic acid]",EC50,Table 2,100 to 1000 nM
"CCc1cc(C(=O)c2ccc(OC(F)(F)F)cc2)c(NC(=O)C(C)(C)SC(C)C(=O)O)s1 (stereo not drawn) [Example 108, 2-{1-[5-Ethyl-3-(4-trifluoromethoxy-benzoyl)-thiophen-2-ylcarbamoyl]-1-methyl-ethylsulfanyl}-propionic acid]",EC50,Table 2,< 100 nM
"CCc1cc(C(=O)c2ccc(OC(F)(F)F)cc2)c(NC(=O)C(CC)SCC(=O)O)s1 (stereo not drawn) [Example 109, {1-[5-Ethyl-3-(4-trifluoromethoxy-benzoyl)-thiophen-2-ylcarbamoyl]-propylsulfanyl}-acetic acid]",EC50,Table 2,< 100 nM
"CCc1cc(C(=O)c2ccc(OC(F)(F)F)cc2)c(NC(=O)C(CC)SC(C)C(=O)O)s1 (stereo not drawn) [Example 110, 2-{1-[5-Ethyl-3-(4-trifluoromethoxy-benzoyl)-thiophen-2-ylcarbamoyl]-propylsulfanyl}-propionic acid]",EC50,Table 2,< 100 nM
"CCc1cc(C(=O)c2ccc(OC)cc2)c(NC(=O)CSC(C)C(=O)O)s1 (stereo not drawn) [Example 111, 2-{[5-Ethyl-3-(4-methoxy-benzoyl)-thiophen-2-ylcarbamoyl]-methylsulfanyl}-propionic acid]",EC50,Table 2,100 to 1000 nM
"CCc1cc(C(=O)c2ccc(OC(F)(F)F)cc2)c(NC(=O)CSC(C)C(=O)O)s1 (stereo not drawn) [Example 112, 2-{[5-Ethyl-3-(4-trifluoromethoxy-benzoyl)-thiophen-2-ylcarbamoyl]-methylsulfanyl}-propionic acid]",EC50,Table 2,< 100 nM
"CCc1cc(C(=O)c2ccc(OC(F)(F)F)cc2)c(NC(=O)C(SCC(=O)O)c2ccccc2)s1 (stereo not drawn) [Example 113, {[5-Ethyl-3-(4-trifluoromethoxy-benzoyl)-thiophen-2-ylcarbamoyl]-phenyl-methylsulfanyl}-acetic acid]",EC50,Table 2,< 100 nM
"CCc1cc(C(=O)c2ccc(OC(F)(F)F)cc2)c(NC(=O)C(SCC(=O)O)C(C)C)s1 (stereo not drawn) [Example 114, {1-[5-Ethyl-3-(4-trifluoromethoxy-benzoyl)-thiophen-2-ylcarbamoyl]-2-methyl-propylsulfanyl}-acetic acid]",EC50,Table 2,100 to 1000 nM
"CCc1cc(C(=O)c2ccc(OC(F)(F)F)cc2)c(NC(=O)c2ccc(NCC(=O)O)cc2)s1 [Example 115, {4-[5-Ethyl-3-(4-trifluoromethoxy-benzoyl)-thiophen-2-ylcarbamoyl]-phenylamino}-acetic acid]",EC50,Table 2,100 to 1000 nM
"CCc1cc(C(=O)c2ccc(OC(F)(F)F)cc2)c(NC(=O)c2ccc(CCC(=O)O)cc2)s1 [Example 116, 3-{4-[5-Ethyl-3-(4-trifluoromethoxy-benzoyl)-thiophen-2-ylcarbamoyl]-phenyl}-propionic acid]",EC50,Table 2,100 to 1000 nM
"CCc1cc(C(=O)c2ccc(OC(F)(F)F)cc2)c(NC(=O)COc2ccc(OCC(=O)O)cc2)s1 [Example 117, (4-{[5-Ethyl-3-(4-trifluoromethoxy-benzoyl)-thiophen-2-ylcarbamoyl]-methoxy}-phenoxy)-acetic acid]",EC50,Table 2,1000 to 30000 nM
"CCc1cc(C(=O)c2ccc(OC(F)(F)F)cc2)c(NC(=O)C(C)(C)NCC(=O)O)s1 [Example 118, {1-[5-Ethyl-3-(4-trifluoromethoxy-benzoyl)-thiophen-2-ylcarbamoyl]-1-methyl-ethylamino}-acetic acid]",EC50,Table 2,100 to 1000 nM
"CCc1cc(C(=O)c2ccc(OC(F)(F)F)cc2)c(NC(=O)C(C)(C)N2CCC[C@@H]2C(=O)O)s1 [Example 119, (R)-1-{1-[5-Ethyl-3-(4-trifluoromethoxy-benzoyl)-thiophen-2-ylcarbamoyl]-1-methyl-ethyl}-pyrrolidine-2-carboxylic acid]",EC50,Table 2,100 to 1000 nM
"CCc1cc(C(=O)c2ccc(OC(F)(F)F)cc2)c(NC(=O)C(CC)N2CCC[C@@H]2C(=O)O)s1 (stereo partly drawn) [Example 120, (R)-1-{1-[5-Ethyl-3-(4-trifluoromethoxy-benzoyl)-thiophen-2-ylcarbamoyl]-propyl}-pyrrolidine-2-carboxylic acid]",EC50,Table 2,< 100 nM
"CCc1cc(C(=O)c2ccc(OC(F)(F)F)cc2)c(NC(=O)C(CC)NCC(=O)O)s1 (stereo not drawn) [Example 121, {1-[5-Ethyl-3-(4-trifluoromethoxy-benzoyl)-thiophen-2-ylcarbamoyl]-propylamino}-acetic acid]",EC50,Table 2,100 to 1000 nM
"CCc1cc(C(=O)c2ccc(OC(F)(F)F)cc2)c(NC(=O)C(NCC(=O)O)c2ccccc2)s1 (stereo not drawn) [Example 122, ({[5-Ethyl-3-(4-trifluoromethoxy-benzoyl)-thiophen-2-ylcarbamoyl]-phenyl-methyl}-amino)-acetic acid]",EC50,Table 2,100 to 1000 nM
"CCc1cc(C(=O)c2ccc(OC(F)(F)F)cc2)c(NC(=O)C(C)N2CCC[C@@H]2C(=O)O)s1 (stereo partly drawn) [Example 123, (R)-1-{1-[5-Ethyl-3-(4-trifluoromethoxy-benzoyl)-thiophen-2-ylcarbamoyl]-ethyl}-pyrrolidine-2-carboxylic acid]",EC50,Table 2,< 100 nM
"CCc1cc(C(=O)c2ccc(OC(F)(F)F)cc2)c(NC(=O)C(c2ccccc2)N2CCC[C@@H]2C(=O)O)s1 (stereo partly drawn) [Example 124, (R)-1-{[5-Ethyl-3-(4-trifluoromethoxy-benzoyl)-thiophen-2-ylcarbamoyl]-phenyl-methyl}-pyrrolidine-2-carboxylic acid]",EC50,Table 2,100 to 1000 nM
"CCc1cc(C(=O)c2ccc(OC(F)(F)F)cc2)c(NC(=O)CN(CC)[C@@H](C)C(=O)O)s1 [Example 125, (S)-2-(Ethyl-{[5-ethyl-3-(4-trifluoromethoxy-benzoyl)-thiophen-2-ylcarbamoyl]-methyl}-amino)-propionic acid]",EC50,Table 2,100 to 1000 nM
"CCc1cc(C(=O)c2ccc(OC(F)(F)F)cc2)c(NC(=O)CN([C@@H](C)C(=O)O)S(C)(=O)=O)s1 [Example 126, (S)-2-({[5-Ethyl-3-(4-trifluoromethoxy-benzoyl)-thiophen-2-ylcarbamoyl]-methyl}-methanesulfonyl-amino)-propionic acid]",EC50,Table 2,1000 to 30000 nM
"CCc1cc(C(=O)c2ccc(OC(F)(F)F)cc2)c(NC(=O)CSC(CC)C(=O)O)s1 (stereo not drawn) [Example 127, 2-{[5-Ethyl-3-(4-trifluoromethoxy-benzoyl)-thiophen-2-ylcarbamoyl]-methylsulfanyl}-butyric acid]",EC50,Table 2,< 100 nM
"CCc1cc(C(=O)c2ccc(OC(F)(F)F)cc2)c(NC(=O)CSC(C(=O)O)c2ccccc2)s1 (stereo not drawn) [Example 128, {[5-Ethyl-3-(4-trifluoromethoxy-benzoyl)-thiophen-2-ylcarbamoyl]-methylsulfanyl}-phenyl-acetic acid]",EC50,Table 2,100 to 1000 nM
"CCc1cc(C(=O)c2ccc(OC(F)(F)F)cc2)c(NC(=O)CS[C@@H](C)C(=O)O)s1 [Example 129, (S)-2-{[5-Ethyl-3-(4-trifluoromethoxy-benzoyl)-thiophen-2-ylcarbamoyl]-methylsulfanyl}-propionic acid]",EC50,Table 2,< 100 nM
"CCc1cc(C(=O)c2ccc(OC(C)C)c(Cl)c2)c(NC(=O)CSCC(=O)O)s1 [Example 130, {[3-(3-Chloro-4-isopropoxy-benzoyl)-5-ethyl-thiophen-2-ylcarbamoyl]-methylsulfanyl}-acetic acid]",EC50,Table 2,100 to 1000 nM
"CCc1cc(C(=O)c2ccc(OC(F)(F)F)c(F)c2)c(NC(=O)CSCC(=O)O)s1 [Example 131, {[5-Ethyl-3-(3-fluoro-4-trifluoromethoxy-benzoyl)-thiophen-2-ylcarbamoyl]-methylsulfanyl}-acetic acid]",EC50,Table 2,< 100 nM
"CCCc1cc(C(=O)c2ccc(OC(F)(F)F)cc2)c(NC(=O)CSCC(=O)O)s1 [Example 132, {[5-Propyl-3-(4-trifluoromethoxy-benzoyl)-thiophen-2-ylcarbamoyl]-methylsulfanyl}-acetic acid]",EC50,Table 2,< 100 nM
"CC(C)c1cc(C(=O)c2ccc(OC(F)(F)F)cc2)c(NC(=O)CSCC(=O)O)s1 [Example 133, {[5-Isopropyl-3-(4-trifluoromethoxy-benzoyl)-thiophen-2-ylcarbamoyl]-methylsulfanyl}-acetic acid]",EC50,Table 2,< 100 nM
"CCC(C)c1cc(C(=O)c2ccc(OC(F)(F)F)cc2)c(NC(=O)CSCC(=O)O)s1 (stereo not drawn) [Example 134, {[5-sec-Butyl-3-(4-trifluoromethoxy-benzoyl)-thiophen-2-ylcarbamoyl]-methylsulfanyl}-acetic acid]",EC50,Table 2,100 to 1000 nM
"CCc1cc(C(=O)c2ccc(F)cc2)c(NC(=O)CSc2ccc(OCC(=O)O)cc2)s1 [Example 135, (4-{[5-Ethyl-3-(4-fluoro-benzoyl)-thiophen-2-ylcarbamoyl]-methylsulfanyl}-phenoxy)-acetic acid]",EC50,Table 2,1000 to 30000 nM
